Values quoted from earlier work in patent publication US8426587B2, “Haloallylamine inhibitors of SSAO/VAP-1 and uses therefor” (Pharmaxis Ltd., priority 2007, dated 2013).

Biological target: T1, rat SSAO/VAP-1 (Rattus norvegicus, UniProt O08590)
T1 sequence (O08590 1-763): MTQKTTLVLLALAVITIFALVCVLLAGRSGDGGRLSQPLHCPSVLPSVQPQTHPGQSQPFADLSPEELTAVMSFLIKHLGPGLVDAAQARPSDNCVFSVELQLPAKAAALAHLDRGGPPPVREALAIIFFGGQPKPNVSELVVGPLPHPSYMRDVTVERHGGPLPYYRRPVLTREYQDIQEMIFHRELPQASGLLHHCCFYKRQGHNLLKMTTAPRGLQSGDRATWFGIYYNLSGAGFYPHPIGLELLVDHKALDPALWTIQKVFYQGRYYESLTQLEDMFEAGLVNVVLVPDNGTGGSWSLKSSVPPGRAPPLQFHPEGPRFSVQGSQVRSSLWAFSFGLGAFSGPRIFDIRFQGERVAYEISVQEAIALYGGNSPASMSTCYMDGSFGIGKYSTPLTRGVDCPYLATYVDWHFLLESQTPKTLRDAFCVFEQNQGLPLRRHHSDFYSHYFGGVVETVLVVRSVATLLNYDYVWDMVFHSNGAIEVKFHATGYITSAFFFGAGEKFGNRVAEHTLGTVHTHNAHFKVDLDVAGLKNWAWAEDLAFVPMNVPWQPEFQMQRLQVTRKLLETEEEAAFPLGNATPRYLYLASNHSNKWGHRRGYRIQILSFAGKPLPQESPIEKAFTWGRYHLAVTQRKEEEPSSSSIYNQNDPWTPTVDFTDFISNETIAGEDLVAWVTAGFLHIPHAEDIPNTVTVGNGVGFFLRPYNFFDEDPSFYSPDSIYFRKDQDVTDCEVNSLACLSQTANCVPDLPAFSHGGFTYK
Settings: reports in the literature; cited from earlier work

For `NC/C(=C/Cl)c1ccccc1` [MDL72274], the “Selectivity for rat SSAO/VAP-1 compared to MAO-A and MAO-B” value is given as “selectively inhibiting rat SSAO/VAP-1”.
